The source of these data is patent US12617777B2, “GPR84 antagonists and uses thereof” (Liminal BioSciences Limited, priority 2021, dated 2026).

The target of the experiment is T1, human GPR84 receptor (Homo sapiens, UniProt Q9NQS5).
T1 construct: host or cells: HEK293, transient transfection
The experiment is described as follows: Gαi biosensor BRET assay in HEK293 cells (antagonism of ZQ-16). It is filed as cell-based. As to conditions: for inhibition at 10 µM: HEK293, single concentration 10 μM (designated F); for inhibition at 2 µM: HEK293, single concentration 2 μM (designated A); for IC50: HEK293 cells, antagonism of 200 nmol/L ZQ-16; for inhibition at 25 µM: HEK293, single concentration 25 μM (designated I). Summed up:
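Antagonist mode: test compound 5 min at 37° C, followed by ZQ-16 agonist (200 nmol/L, 5 min, room temperature), in HEK293 cells transfected with GPR84 plus Rluc8-tagged Gαi2, GFP10-Gγ2 and Gβ1. Readout as GFP10/Rluc8 emission ratio after 5 μmol/L coelenterazine 400A, net of Rluc8-only and vehicle signal.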

A word on the inhibition: it is the drop in the measured response relative to a control, in per cent. A high value points to a response far below the control. In general, IC50 refers to the concentration that inhibits the measured activity by half. Read a high IC50 as weaker potency in that assay.

T1 sequence (Q9NQS5 whole entry): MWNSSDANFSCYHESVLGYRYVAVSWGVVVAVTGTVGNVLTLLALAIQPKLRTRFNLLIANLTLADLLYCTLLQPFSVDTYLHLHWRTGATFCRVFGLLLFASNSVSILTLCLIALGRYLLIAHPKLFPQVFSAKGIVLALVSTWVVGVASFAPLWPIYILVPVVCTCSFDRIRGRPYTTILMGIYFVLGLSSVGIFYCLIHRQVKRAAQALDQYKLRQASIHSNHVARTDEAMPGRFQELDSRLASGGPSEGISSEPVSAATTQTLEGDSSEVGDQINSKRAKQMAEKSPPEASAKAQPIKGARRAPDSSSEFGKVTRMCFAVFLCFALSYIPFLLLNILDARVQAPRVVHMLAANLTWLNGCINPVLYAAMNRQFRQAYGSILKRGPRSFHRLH

Turning to `Cc1ccc(N2CC(C)(C)C2)cc1-c1cn(CC2CCCCO2)nn1` (stereo not shown) [Compound I-213], the inhibition at 10 µM was at most 25%.
`CC(=O)N(c1cn(CC2OCC(C)(C)CO2)nn1)c1cc(C#CC2CC2)ccc1C` [Compound I-792, N-(5-(cyclopropylethynyl)-2-methylphenyl)-N-(1-((5,5-dimethyl-1,3-dioxan-2-yl)methyl)-1H-1,2,3-triazol-4-yl)acetamide] yielded an inhibition at 2 µM of over 75% and an IC50 of 0.3 to 1 µM.
Consider `CN(C)c1cc(N2CC3(CCOCC3)C2)ccc1-c1cn(CC2OCC(C)(C)CO2)nn1` [Compound I-854], for which the inhibition at 2 µM is over 75%.
For the molecule `C(#CC1CC1)c1cccc(-c2nnn(CC3CCCCO3)n2)c1` (stereo not shown) [Compound I-4], the inhibition at 25 µM lay within 25 to 50% and the IC50 is at most 0.3 µM.
Turning to `Cc1cc(N2CC(C)(CO)C2)c(F)cc1-c1cn(C[C@@H]2CCCCO2)nn1` [Compound I-805], the inhibition at 2 µM was over 75%.
As to `Cc1c(-c2ccc(C#CCNc3ccccc3)cc2)nnn1CC1CCCCO1` (stereo not shown) [Compound I-235], the inhibition at 10 µM lay within 25 to 50%.
Still for that read-out and setting: with `Cc1cc(N2CC(C)(CO)C2)cnc1-c1cn(CC2Oc3ccccc3O2)nn1` [Compound I-628] the figure was over 75%.
`COC(c1cn(CC2OCC(F)(F)CO2)nn1)c1cc(C#CC2CC2)ccc1C` (stereo not shown) [Compound I-725] gave an inhibition at 10 µM of over 75% and an IC50 of 0.3 to 1 µM.
Turning to `COC(c1cn(CC2CCCCO2)nn1)c1cc(N2CC(C)(C)C2)ccc1C` (stereo not shown) [Compound I-593], the inhibition at 10 µM is at most 25%.
The molecule `CCc1cc(C#CC2CC2)cnc1-c1cn(CC2CCCCO2)nn1` (stereo not shown) [Compound I-220] came in with an inhibition at 10 µM of over 75% and an IC50 of 0.3 to 1 µM.
`Cc1cc(C#CCNc2ccccc2)ccc1-c1cn(CC2CCCO2)nn1` (stereo not shown) [Compound I-62]: the inhibition at 10 µM was over 75% and the IC50 was over 3 µM.
As to `Cc1cc(C#CC2CC2)ccc1-c1cn(CC2OCC(c3ccccc3)CO2)nn1` (stereo not shown) [Compound I-704], the inhibition at 10 µM is at most 25%.
As for `C(#CC1CC1)c1cccc(-c2nnn(CC3COCCO3)n2)c1` (stereo not shown) [Compound I-6], the inhibition at 25 µM is at most 25%.
Take `Cc1ccc(C#CC2CC2)cc1C(=O)c1cn(CC2CCCCO2)nn1` (stereo not shown) [Compound I-591]: the inhibition at 10 µM is over 75% and the IC50 is 0.3 to 1 µM.
In the case of `CC1(C)COC(Cn2cc(-c3ncc(N4CC(C)(CO)C4)cc3Cl)nn2)OC1` [Compound I-765], the IC50 is 1 to 3 µM.
As to `Cc1cc(C#CC2CC(F)(F)C2)cnc1-c1cn(CC2OCC(C)(C)CO2)nn1` [Compound I-653], the inhibition at 10 µM was over 75%.
On the same count and under the same terms, then `Cc1cc(C#CCNC(C)(C)C)ccc1-c1cn(CC2CCCCO2)nn1` (stereo not shown) [Compound I-267], with 25 to 50%.
The molecule `Cc1cc(N2CCN(Cc3ccccn3)CC2)ccc1-c1cncn1C[C@H]1CCCCO1` [Compound I-672] came in with an inhibition at 10 µM of at most 25%.
Same read-out and setting: then `COCc1cc(C#CC2CC2)ccc1-c1cn(CC2CCCCO2)nn1` (stereo not shown) [Compound I-206], with 50 to 75%.
As for `CNCc1cc(C#CC2CC2)ccc1-c1cn(CC2CCCCO2)nn1` (stereo not shown) [Compound I-355], the inhibition at 10 µM was 50 to 75%.
The same measure, in the same setting: then `Cc1cc(C#CC2CC2)ccc1Cc1cn(CC2CCCCO2)nn1` (stereo not shown) [Compound I-300], with 25 to 50%.
Regarding `Cc1cc(Cn2cc(-c3ccc(C#CC4CC4)cc3C)nn2)on1` [Compound I-557], the inhibition at 2 µM is at most 25%.
For `CC(C)Oc1cc(N2CC(C)(CO)C2)ccc1-c1cn(CC2CC(C)(C)O2)nn1` (stereo not shown) [Compound I-677], the inhibition at 2 µM is over 75% and the IC50 is at most 0.3 µM.
Regarding `Cc1cc(N2C3CCC2CN(Cc2ccccn2)C3)ccc1-c1cn(CC2CCCCO2)nn1` (stereo not shown) [Compound I-430], the inhibition at 10 µM lay in the range of 25 to 50% and the IC50 fell in the range of 0.3 to 1 µM.
As for `COC(c1cn(CC2OCC(C)(C)CO2)nn1)c1cc(C#CC2CC2)ccc1C` (stereo not shown) [Compound I-592], the inhibition at 10 µM was 50 to 75%.
On the same count and under the same terms, then `Cc1cc(N2CC3(CCN(C)C3)C2)ccc1-c1cn(CC2CCCCO2)nn1` (stereo not shown) [Compound I-168], with at most 25%.
With `Cc1cc(C#CC(C)O)ccc1-c1cn(CC2CCCCO2)nn1` (stereo not shown) [Compound I-78], the IC50 fell in the range of 1 to 3 µM.
In turn, `COCC#Cc1ccc(-c2nnn(CC3CCCCO3)c2C)cc1` (stereo not shown) [Compound I-244] came in with an inhibition at 10 µM of 25 to 50%.
`COCC1(C)CN(c2ccc(-c3cn(CC4OCC(C)(C)CO4)nn3)c(N(C)C)c2)C1` [Compound I-706] displayed an inhibition at 10 µM of over 75% and a half-maximal inhibitory concentration (IC50) of 0.3 to 1 µM.
Regarding `Cc1ncn(CC2CCCCO2)c1-c1ccc(C#CC2CC2)cc1` (stereo not shown) [Compound I-335], the inhibition at 25 µM lay within 25 to 50%.
Consider `C(#CC1CC1)c1cccc(Cc2cn(CC3CCCCO3)nn2)c1` (stereo not shown) [Compound I-301], for which the inhibition at 10 µM was 50 to 75%.
Molecule `C(#CC1CC1)c1csc(-c2cn(CC3CCCCO3)nn2)c1` (stereo not shown) [Compound I-242] displayed an inhibition at 10 µM of at most 25%.
Same read-out and setting: with `COCC#Cc1cnc(-c2cn(CC3CCCCO3)nn2)c(C)c1` (stereo not shown) [Compound I-273] the figure was 50 to 75%; with `Cc1cc(C#CC2CC2)ccc1-c1cn(CC2OCCO2)nn1` [Compound I-457], at most 25%.
For `C(#CC1CC1)c1ccc(-c2cn(CC3CCc4ccccc4O3)nn2)cc1` (stereo not shown) [Compound I-41], the inhibition at 25 µM is at most 25%.
Consider `Cc1cc(N2CC(N(C)Cc3ccccc3)C2)ccc1-c1cn(CC2CCCCO2)nn1` (stereo not shown) [Compound I-185], for which the inhibition at 10 µM is at most 25%.
`CC1(C)CN(c2ccc(-c3cn(C[C@H]4CCCCO4)nn3)c(OC3CC3)c2)C1` [Compound I-749] came in with an inhibition at 2 µM of over 75%, an inhibition at 10 µM of 50 to 75% and an IC50 of at most 0.3 µM.
In turn, `Cc1cc(N2CCN(Cc3ncco3)CC2)ccc1-c1cn(CC2CCCCO2)nn1` (stereo not shown) [Compound I-579] displayed an inhibition at 10 µM of over 75%.
In turn, `CCc1cc(C#CCNC)ccc1-c1cn(CC2OCC(C)(C)CO2)nn1` [Compound I-859] showed an inhibition at 2 µM of over 75%.
Still for that read-out and setting: then `Cc1cc(C#CC2CC2)ccc1-c1cn(Cc2ccn(C)n2)nn1` [Compound I-543], with at most 25%.
Take `Cc1cc(C#CC2CC2)ccc1-c1cn(CC2CCC(F)(F)CO2)nn1` (stereo not shown) [Compound I-207]: the inhibition at 10 µM lay in the range of 50 to 75%.
`Cc1ccc(C#CC2CC2)cc1Cc1cn(CC2CCCCO2)nn1` (stereo not shown) [Compound I-299] registered an IC50 of over 3 µM.
Turning to `CC(C)Oc1cc(C#CC2CC2)cnc1-c1cn(Cc2ncccn2)nn1` [Compound I-502], the inhibition at 10 µM is over 75% and the IC50 lay in the range of 1 to 3 µM.
On to `Cc1cc(N2CCN(Cc3ccccn3)CC2)ccc1-c1cn(CC2OCC(C)(C)CO2)cn1` [Compound I-682], for which the inhibition at 10 µM was over 75% and the concentration for half-maximal inhibition (IC50) lay within 0.3 to 1 µM.
As to `Cc1ccc(-c2cccc(-c3cn(C[C@H]4CCCCO4)nn3)c2)cn1` [Compound I-33], the inhibition at 25 µM was in the range of 25 to 50%.
For the molecule `Cc1cc(N2CC(C)(C)C2)c(C)cc1-c1cn(CC2OCC(C)(C)CO2)nn1` [Compound I-685], the inhibition at 10 µM is over 75% and the concentration for half-maximal inhibition (IC50) lay within 1 to 3 µM.
Molecule `Cc1cc(N2CCC(N(C)Cc3ccccc3)CC2)ccc1-c1cn(CC2CCCCO2)nn1` (stereo not shown) [Compound I-141] yielded an inhibition at 10 µM of at most 25%.
`CC(C)Oc1cc(C#CCNc2ccccc2)cnc1-c1cn(CC2CC(C)(C)CO2)nn1` (stereo not shown) [Compound I-526] had an inhibition at 10 µM of 50 to 75% and an IC50 of at most 0.3 µM.
`C(#CC1CC1)c1ccc(-c2cn(CC3CCCCO3)cn2)cc1` (stereo not shown) [Compound I-333] showed an inhibition at 15 µM (HEK293, single concentration 15 μM (designated H)) of at most 25%.
As to `Cc1cc(N2CC(N(C)S(C)(=O)=O)C2)ccc1-c1cn(CC2CCCCO2)nn1` (stereo not shown) [Compound I-487], the inhibition at 10 µM is at most 25%.
On the same count and under the same terms, with `Cc1cc(C#CCN2CC(C)(C)C2)cnc1-c1cn(Cc2ncccn2)nn1` [Compound I-473] the figure was at most 25%; with `CCn1cc(-c2ccc(-c3cn(CC4CCCCO4)nn3)c(C)c2)cn1` (stereo not shown) [Compound I-194], at most 25%.
Molecule `Cc1cc(C#CC2CC2)cnc1-c1cn(CC2CCCCO2)nn1` (stereo not shown) [Compound I-866] had an IC50 of 1 to 3 µM.
For `CC(=O)N1CCN(c2ccc(-c3cn(CC4CCCCO4)nn3)c(C)c2)CC1` (stereo not shown) [Compound I-112], the inhibition at 10 µM was at most 25%.
The same measure, in the same setting: with `CC(C)OCC#Cc1cnc(-c2cn(CC3OCC(C)(C)CO3)nn2)c(OC(C)C)c1` [Compound I-846] the figure was at most 25%.
Still for that read-out and setting: with `Cc1cc(C#CCNc2ccccc2)ccc1-c1cn(CCC2CCCCO2)nn1` (stereo not shown) [Compound I-306] the figure was 25 to 50%; with `Cc1cc(C#CCN2CC(C)(C)C2)cnc1-c1nnn(CC2OCC(C)(C)CO2)n1` [Compound I-835], at most 25%; with `COCC1(C)CN(c2ccc(-c3cn(CC4CCCCO4)nn3)c(C)c2)C1` (stereo not shown) [Compound I-439], 25 to 50%.
`CN(C)c1cc(N2CC(C)(CO)C2)ccc1-c1cn(CC2OCC3(CC3)CO2)nn1` [Compound I-748] gave an inhibition at 2 µM of over 75% and an IC50 of at most 0.3 µM.
The molecule `CC1(C)CN(c2ccc(-c3cn(CC4CCCCO4)nn3)c(C(F)(F)F)c2)C1` (stereo not shown) [Compound I-255] displayed an inhibition at 10 µM of 25 to 50%.
Take `CCOCC#Cc1cnc(-c2cn(CC3OCC(C)(C)CO3)nn2)c(OC2CC2)c1` [Compound I-819]: the inhibition at 10 µM is over 75% and the IC50 was at most 0.3 µM.
For the molecule `Cc1cc(C#CCN)cnc1-c1cn(CC2CCCCO2)nn1` (stereo not shown) [Compound I-826, 3-(5-methyl-6-(1-((tetrahydro-2H-pyran-2-yl)methyl)-1H-1,2,3-triazol-4-yl)pyridin-3-yl)prop-2-yn-1-amine], the inhibition at 10 µM is over 75%.
On to `C(#CC1CC1)c1csc(-c2cn(CC3CCCCO3)nn2)n1` (stereo not shown) [Compound I-241], for which the inhibition at 10 µM is at most 25%.
Consider `C(#CC1CC1)c1cnc(-c2cn(CC3OCC4(CC4)CO3)nn2)c(OC2CC2)c1` [Compound I-785], for which the inhibition at 2 µM is over 75% and the IC50 is at most 0.3 µM.
